Reference: patent publication US11439667B2, “Compositions and methods for expansion of embryonic hematopoietic stem cells” (Fred Hutchinson Cancer Research Center, priority 2013, dated 2022)

Tests used:
[1] = test system: mouse AGM VE-Cadherin+/CD45+ cells; assay: ex vivo expansion of AGM-derived embryonic HSPC, surface phenotype by FACS; format: cell-based; details: combined with Notch agonist (such as Delta1ext-IgG) and one or more growth factors
From the text: Embryos were harvested from pregnant females at 9.5 to 11.5 dpc, dissected free of maternal tissue and washed extensively in PBS containing 10% fetal bovine serum (FBS). Embryo age was precisely time by counting somite numbers. Yolks sac was dissected free from the embryo. For AGM dissections, 30 gauge needles were used to remove the caudal and rostral portions of the embryo above the forelimbs and below the hindlimbs, and subsequently dissect off the dorsal somite tissue and ventral abdominal contents. The embryo was then splayed open lying on its dorsal surface and remaining tissues surrounding the urogenital ridges were further dissected, leaving the intact AGM containing the dorsal aorta centrally. For embryos prior to AGM stage (E9.5 or less), the P-Sp region was dissected by removing the rostral and caudal portions of the embryo. Dissected yolk sac or AGM/P-Sp tissues were pooled and treated with 0.25% collagenase (Stem Cell Technologies, Vancouver, Canada) for 25-30 minutes at 37° C., pipetted to single cell suspension, and washed with PBS containing 10% FBS. For Ly6a-eGFP transgenic embryos, dissected embryos were processed separately and pooled for sorting, if indicated, following confirmation of GFP expression. […]

ALK7 = target: T1, ALK7 (Homo sapiens, UniProt Q8NER5); details: cited from earlier work
T1 sequence (Q8NER5 21-493): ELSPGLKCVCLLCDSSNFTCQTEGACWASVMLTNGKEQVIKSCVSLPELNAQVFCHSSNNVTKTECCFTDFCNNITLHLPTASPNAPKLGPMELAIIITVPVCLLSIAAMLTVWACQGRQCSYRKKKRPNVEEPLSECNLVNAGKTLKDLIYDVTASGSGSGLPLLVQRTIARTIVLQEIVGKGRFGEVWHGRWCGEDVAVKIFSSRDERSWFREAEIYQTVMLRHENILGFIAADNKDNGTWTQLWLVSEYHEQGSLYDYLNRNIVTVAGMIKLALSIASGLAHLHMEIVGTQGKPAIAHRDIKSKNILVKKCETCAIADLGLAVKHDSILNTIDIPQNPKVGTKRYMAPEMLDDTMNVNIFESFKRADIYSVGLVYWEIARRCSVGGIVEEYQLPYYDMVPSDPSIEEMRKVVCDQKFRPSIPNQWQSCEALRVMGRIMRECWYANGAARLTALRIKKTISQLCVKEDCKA

human osteosarcoma cells = details: cited from earlier work
[2] = test system: ESC-derived endothelial cells; details: cited from earlier work
human ESC = details: Wang C, et al. Cell Res. 2012; cited from earlier work

Question: What does the source list for `NC(=O)c1ccc(-c2nc(-c3ccc4c(c3)OCO4)c(-c3ccccn3)[nH]2)cc1` [SB431542, 4-[4-(1,3-benzodioxol-5-yl)-5-(2-pyridinyl)-1H-imidazol-2-yl]benzamide]?
Answer: effect on expansion of the eHSC when combined with Notch agonist and growth factors [1]: additive and/or synergistic effect; inhibition of ALK7 (ALK7): potent and selective inhibitor; effect on TGF-β-induced proliferation of human osteosarcoma cells (human osteosarcoma cells): suppress; effect on proliferation, differentiation and sheet formation of ESC-derived endothelial cells [2]: stimulate; effect on general hematopoiesis from human ESC (human ESC): enhance general hematopoiesis, though not engrafting HSC
